# Reference: EP2649983A1, “Compounds which inhibit neuronal exocytosis (II)” (Lipotec, S.A., priority 2012, dated 2013)
# Residues, ends and D or L forms follow the SMILES beside them. No end group written: not given here. *: point of attachment. Palmitoyl = CCCCCCCCCCCCCCCC(=O)*; NHhexadecyl = CCCCCCCCCCCCCCCCN*; Myristoyl = CCCCCCCCCCCCCC(=O)*
# Columns and labels:
# [1] = system: human neuroblastoma cell line; experiment: Release of noradrenaline induced by TPA/ionomycin in a neuroblastoma cell line, quantified by ELISA; assay type: cell-based; conditions: 60 minutes pre-incubation, TPA/ION = 100.00
# Description: The induction of the release of noradrenaline with TPA (12-O-tetradecanoylphorbol-13-acetate)/lonomycin enables direct measurement of neuronal exocytosis. For the study of the inhibitory effect of the compounds of the invention on the release of noradrenaline, cells of a human neuroblastoma cell line were pre-incubated (1x10^6 cells/well) for 60 minutes with the compound of the invention (1 µM, 10 µM, 100 µM, 500 µM or 1 mM compounds), and afterward the release of noradrenaline was induced. The release of the noradrenaline neurotransmitter was induced by an 8 minute pretreatment with a solution of 12-O-tetradecanoylphorbol-13-acetate (TPA) 100 nM, which mobilized the intracellular vesicles which contained the neurotransmitter; followed by a 5 minute incubation with TPA/lonomycin (100 nM/10 µM), which induced the release of the neurotransmitter contained in these vesicles. […] For this, absorbance at 405 nm was measured in Thermo Scientific Multiskan Ascent equipment.
# The blocking of the SNARE complex by the compounds of the invention lead to an inhibition of neuronal exocytosis and therefore, a decrease in the levels of released noradrenaline (Table 6).
# SNARE complex [2] = experiment: Inhibition of SNARE complex formation, complex detected by electrophoresis (SDS-PAGE); assay type: binding
# Description: VAMP (6 µM), syntaxin (6 µM) and the compound of the invention (5 mM or 1 mM compounds) were incubated for 3 hours. Subsequently, SNAP-25 (0.6 µM) was added and the mixture was incubated for an additional 15 hours to allow the formation of the SNARE complex. After incubation, the loading buffer (Laemli Simple Buffer) was added and the mixture was analyzed by 10% acrylamide SDS-PAGE in gel. The amount of complex was determined by MediaCybernetics image analysis software Image-Pro Plus.
# The percentage of inhibition of the formation of the complex is inversely proportional to the quantity of SNARE complex detected.
# SNARE complex [3] = experiment: Inhibition of SNARE complex formation (competition versus SNAP-25), complex detected by ELISA; assay type: binding
# Description: With the aim of determining the capacity of inhibition of the SNARE complex formation by the compounds of the invention, the competitive inhibition of the compounds compared to SNAP-25 was studied with regards to the formation of this complex. The proportion of SNARE complex formed was determined by the ELISA technique, using one of the proteins from the complex bound to GST. In a 96-well plate VAMP was immobilized (using a 0.037 µM solution) and subsequently the free spaces were blocked with BSA (3%). Parallel to this process, SNAP-25 bound to GST (0.0185 µM), syntaxin (0.037 µM) and a compound of the invention (2.5 mM and 0.5 mM compounds) were incubated for 1 hour. After incubation, the samples were transferred to the plate with immobilized VAMP and were incubated for 1 hour to allow the formation of the SNARE complex. Afterward, the plate was washed and the complex was detected by a primary antibody anti-GST (Antibody anti-GST epitope TAG, Fisher Cat. no:PA1-982A). The reading was carried out at a wavelength of 490 nm in a TECAN GENios spectrophotometric reader.
# Table 4 showns the results of the competitive inhibition of the formation of the SNARE complex by the compounds of the invention versus SNAP-25. The percentage of inhibition of the formation of the complex is inversely proportional to the quantity of SNARE complex spectrophotometrically detected.
# [4] = concentration of compound 0.5 mM
# [5] = concentration of compound 2.5 mM
compound,measurement,setting,value
Ac-DHFQQRM-NH2 [Ac-SEQ ID NO:24-NH2],% RELEASED NORADRENALINE Average,[1]; 1 µM,90.63%
same,% RELEASED NORADRENALINE Average,[1]; 10 µM,97.06%
same,% RELEASED NORADRENALINE Average,[1]; 100 µM,88.95%
same,% RELEASED NORADRENALINE Average,[1]; 500 µM,78.11%
same,% RELEASED NORADRENALINE Average,[1]; 1000 µM,67.90%
CCCCCCCCCCCCCCCC(=O)N[C@@H](CCC(=O)O)C(=O)N[C@@H](CC(=O)O)C(=O)N[C@@H](CC(C)C)C(=O)N[C@@H](CCCCN)C(=O)N[C@@H](CCCNC(=N)N)C(=O)N[C@@H](Cc1c[nH]c2ccccc12)C(=O)N[C@@H](CCSC)C(N)=O [Palm-SEQ ID NO:14-NH2] (Palmitoyl-EDLKRWM-NH2),% inhibition formation SNARE complex,SNARE complex [2]; concentration of compound 5 mM,93%
Ac-EDLKRWM-NH2 [Ac-SEQ ID NO:14-NH2],% RELEASED NORADRENALINE Average,[1]; 10 µM,84.96%
same,% RELEASED NORADRENALINE Average,[1]; 100 µM,85.97%
same,% RELEASED NORADRENALINE Average,[1]; 1000 µM,45.78%
Ac-EHLKQWM [Ac-SEQ ID NO:1-OH],% inhibition formation SNARE complex,SNARE complex [3]; [4],29%
CCCCCCCCCCCCCCCC(=O)N[C@@H](CC(=O)O)C(=O)N[C@@H](Cc1c[nH]cn1)C(=O)N[C@@H](Cc1ccccc1)C(=O)N[C@@H](CC(C)C)C(=O)N[C@@H](CC(=O)O)C(=O)N[C@@H](Cc1c[nH]c2ccccc12)C(=O)N[C@@H](CCSC)C(N)=O [Palm-SEQ ID NO:25-NH2] (Palmitoyl-DHFLDWM-NH2),% inhibition formation SNARE complex,SNARE complex [2]; concentration of compound 1 mM,36%
same,% inhibition formation SNARE complex,SNARE complex [3]; [5],53%
CCCCCCCCCCCCCCCC(=O)N[C@@H](CC(=O)O)C(=O)N[C@@H](Cc1c[nH]cn1)C(=O)N[C@@H](Cc1ccccc1)C(=O)N[C@@H](CC(C)C)C(=O)N[C@@H](CC(N)=O)C(=O)N[C@@H](Cc1c[nH]c2ccccc12)C(=O)N[C@@H](CCSC)C(N)=O [Palm-SEQ ID NO:34-NH2] (Palmitoyl-DHFLNWM-NH2),% inhibition formation SNARE complex,SNARE complex [3]; [5],51%
EHLKQWM-NH2 [H-SEQ ID NO:1-NH2],% inhibition formation SNARE complex,SNARE complex [3]; [4],30%
same,% inhibition formation SNARE complex,SNARE complex [3]; [5],58%
CCCCCCCCCCCCCC(=O)N[C@@H](CC(N)=O)C(=O)N[C@@H](Cc1c[nH]cn1)C(=O)N[C@@H](Cc1ccccc1)C(=O)N[C@@H](CC(C)C)C(=O)N[C@@H](CC(N)=O)C(=O)N[C@@H](Cc1c[nH]c2ccccc12)C(=O)N[C@@H](CCSC)C(N)=O [Myr-SEQ ID NO:15-NH2] (Myristoyl-NHFLNWM-NH2),% inhibition formation SNARE complex,SNARE complex [2]; concentration of compound 1 mM,23%
same,% inhibition formation SNARE complex,SNARE complex [2]; concentration of compound 5 mM,76%
CCCCCCCCCCCCCCCC(=O)N[C@@H](CC(N)=O)C(=O)N[C@@H](Cc1c[nH]cn1)C(=O)N[C@@H](Cc1ccccc1)C(=O)N[C@@H](CC(C)C)C(=O)N[C@@H](CC(N)=O)C(=O)N[C@@H](Cc1c[nH]c2ccccc12)C(=O)N[C@@H](CCSC)C(N)=O [Palm-SEQ ID NO:15-NH2] (Palmitoyl-NHFLNWM-NH2),% inhibition formation SNARE complex,SNARE complex [2]; concentration of compound 1 mM,22%
same,% inhibition formation SNARE complex,SNARE complex [2]; concentration of compound 5 mM,74%
same,% inhibition formation SNARE complex,SNARE complex [3]; [5],21%
CCCCCCCCCCCCCCCC(=O)N[C@@H](CCC(N)=O)C(=O)N[C@@H](Cc1c[nH]cn1)C(=O)N[C@@H](CC(C)C)C(=O)N[C@@H](Cc1c[nH]cn1)C(=O)N[C@@H](CC(N)=O)C(=O)N[C@H](C(=O)N[C@@H](CCSC)C(N)=O)C(C)C [Palm-SEQ ID NO:3-NH2] (Palmitoyl-QHLHNVM-NH2),% inhibition formation SNARE complex,SNARE complex [3]; [5],51%
Ac-EHLKQWM-NH2 [Ac-SEQ ID NO:1-NH2],% RELEASED NORADRENALINE Average,[1]; 1 µM,96.14%
same,% RELEASED NORADRENALINE Average,[1]; 10 µM,93.07%
same,% RELEASED NORADRENALINE Average,[1]; 100 µM,79.59%
same,% RELEASED NORADRENALINE Average,[1]; 500 µM,49.08%
same,% RELEASED NORADRENALINE Average,[1]; 1000 µM,42.48%
CCCCCCCCCCCCCCCC(=O)N[C@@H](CCC(=O)O)C(=O)N[C@@H](Cc1c[nH]cn1)C(=O)N[C@@H](CC(C)C)C(=O)N[C@@H](CCCCN)C(=O)N[C@@H](CCC(N)=O)C(=O)N[C@@H](Cc1c[nH]c2ccccc12)C(=O)N[C@@H](CCSC)C(N)=O [Palm-SEQ ID NO:1-NH2] (Palmitoyl-EHLKQWM-NH2),% inhibition formation SNARE complex,SNARE complex [3]; [4],21%
same,% inhibition formation SNARE complex,SNARE complex [3]; [5],47%
Ac-DHFLDWM-NH2 [Ac-SEQ ID NO:25-NH2],% RELEASED NORADRENALINE Average,[1]; 1 µM,99.59%
same,% RELEASED NORADRENALINE Average,[1]; 10 µM,94.48%
same,% RELEASED NORADRENALINE Average,[1]; 100 µM,74.79%
same,% RELEASED NORADRENALINE Average,[1]; 500 µM,48.07%
same,% RELEASED NORADRENALINE Average,[1]; 1000 µM,41.05%
CCCCCCCCCCCCCCCC(=O)N[C@@H](CC(=O)O)C(=O)N[C@@H](Cc1c[nH]cn1)C(=O)N[C@@H](Cc1ccccc1)C(=O)N[C@@H](CCC(N)=O)C(=O)N[C@@H](CCC(N)=O)C(=O)N[C@@H](CCCNC(=N)N)C(=O)N[C@@H](CCSC)C(N)=O [Palm-SEQ ID NO:24-NH2] (Palmitoyl-DHFQQRM-NH2),% inhibition formation SNARE complex,SNARE complex [2]; concentration of compound 1 mM,17%
same,% inhibition formation SNARE complex,SNARE complex [2]; concentration of compound 5 mM,66%
same,% inhibition formation SNARE complex,SNARE complex [3]; [4],36%
CCCCCCCCCCCCCCCCNC(=O)[C@H](CCSC)NC(=O)[C@H](Cc1c[nH]c2ccccc12)NC(=O)[C@H](CCCNC(=N)N)NC(=O)[C@H](CCCCN)NC(=O)[C@H](CC(C)C)NC(=O)[C@H](CC(=O)O)NC(=O)[C@H](CCC(=O)O)NC(C)=O [Ac-SEQ ID NO:14-NH-(CH2)15-CH3] (Ac-EDLKRWM-NHhexadecyl),% inhibition formation SNARE complex,SNARE complex [3]; [5],35%
